Assay [1] relates to AAD-12 (v1) pDAB4101 corn events (4101(0)003.R.003.AF and 4101(0)005.R001.AF). Nature of the assay: Field tolerance of corn: visual injury and brace root injury, AAD-12 events. Format: in vivo, Zea mays. The procedure:
Seeds were planted with cone planter on 40-inch row spacing at Wayside and 30 inch spacing at Fowler. […] Herbicide treatments were 2,4-D (dimethylamine salt) at 1120, 2240 and 4480 g ae/ha, triclopyr at 840 g ae/ha, fluroxypyr at 280 g ae/ha and an untreated control. The AAD-12 (v1) events contained the AHAS gene as a selectable marker. The F2 corn events were segregating so the AAD-12 (v1) plants were treated with imazethapyr at 70 g ae/ha to remove the null plants. Herbicide treatments were applied when corn reached the V6 stage using compressed air backpack sprayer delivering 187 L/ha carrier volume at 130-200 kpa pressure. […]

Assay [2] concerns Roundup Ready (RR) control corn hybrid (2P782). Nature of the assay: Field tolerance of corn: visual injury and brace root injury, control hybrid. The conditions noted are these: for % Visual Injury 14DAT: 2P782 control; for visual injury: 14 DAT. Format: in vivo, Zea mays. The procedure: Seeds were planted with cone planter on 40-inch row spacing at Wayside and 30 inch spacing at Fowler. […] Herbicide treatments were 2,4-D (dimethylamine salt) at 1120, 2240 and 4480 g ae/ha, triclopyr at 840 g ae/ha, fluroxypyr at 280 g ae/ha and an untreated control. The AAD-12 (v1) events contained the AHAS gene as a selectable marker. The F2 corn events were segregating so the AAD-12 (v1) plants were treated with imazethapyr at 70 g ae/ha to remove the null plants. Herbicide treatments were applied when corn reached the V6 stage using compressed air backpack sprayer delivering 187 L/ha carrier volume at 130-200 kpa pressure. Visual injury ratings were taken at 7, 14 and 21 days after treatment.

Assay [3] has as its system AAD-12 (v1) T1 tobacco plants. In words: Cross tolerance of T1 tobacco to phenoxy and pyridyloxy auxin herbicides. Format: in vivo, Nicotiana tabacum. The source says: Two to four T0 individuals surviving high rates of 2,4-D and fluroxypyr were saved from each event and allowed to self fertilize in the greenhouse to give rise to T1 seed. The T1 seed was stratified, and sown into selection trays much like that of Arabidopsis (Example 7.4), followed by selective removal of untransformed nulls in this segregating population with 560 g ai/ha glufosinate (PAT gene selection). Survivors were transferred to individual 3-inch pots in the greenhouse. These lines provided high levels of resistance to 2,4-D in the T0 generation. Improved consistency of response is anticipated in T1 plants not having come directly from tissue culture. These plants were compared against wildtype KY160 tobacco. All plants were sprayed with a track sprayer set at 187 L/ha. The plants were sprayed from a range of 140-2240 g ac/ha 2,4-D dimethylamine salt (DMA), 70-1120 g ace/ha triclopyr or 35-560 g ae/ha fluroxypyr. All applications were formulated in water. Each treatment was replicated 2-4 times. Plants were evaluated at 3 and 14 days after treatment. Plants were assigned injury rating with respect to stunting, chlorosis, and necrosis. The T1 generation is segregating, so some variable response is expected due to difference in zygosity.

Assay [4] has as its system wild-type tobacco line (KY160). Nature of the assay: Field tolerance of tobacco, wild-type line. In kind it is in vivo, Nicotiana tabacum. The conditions noted are these: for injury: 14 DAT; for Average % Injury across locations at 14 DAT: Wild type. The procedure:
Field level tolerance trials were conducted on three AAD-12 (v1) lines (events pDAS1580-[1]-018.001, pDAS1580-[1]-004.001 and pDAS1580-[1]-020.016) and one wild-type line (KY160) at field stations in Indiana and Mississippi. Tobacco transplants were grown in the greenhouse by planting T1 seed in 72 well transplant flats (Hummert International) containing Metro 360 media according to growing conditions indicated above. The null plants were selectively removed by Liberty selection as previously described. The transplant plants were transported to the field stations and planted at either 14 or 24 inches apart using industrial vegetable planters. Drip irrigation at the Mississippi site and overhead irrigation at the Indiana site were used to keep plants growing vigorously.
The experimental design was a split plot design with 4 replications. The main plot was herbicide treatment and the sub-plot was tobacco line. The herbicide treatments were 2,4-D (dimethylamine salt) at 280, 560, 1120, 2240 and 4480 g ac/ha, triclopyr at 840 g ae/ha, fluroxypyr at 280 g ac/ha and an untreated control. Plots were one row by 25-30 ft. Herbicide treatments were applied 3-4 weeks after transplanting using compressed air backpack sprayer delivering 187 L/ha carrier volume at 130-200 kpa pressure. Visual rating of injury, growth inhibition, and epinasty were taken at 7, 14 and 21 days after treatment.

In assay [5] the test system is AAD-12 (v1) (pDAS1580) T2 tobacco plants. Nature of the assay: Auxinic herbicide cross tolerance of stacked tobacco, AAD-12 T2. In kind it is in vivo, Nicotiana tabacum. The procedure:
(§1) Homozygous AAD-12 (v1) (pDAS1580) and AAD-1 (v3) (pDAB721) plants (see PCT/US2005/014737 for the latter) were both reciprocally crossed and F1 seed was collected. The F1 seed from two reciprocal crosses of each gene were stratified and treated 4 reps of each cross were treated under the same spray regimen as used for the other testing with one of the following treatments: 70, 140, 280 g ac/ha fluroxypyr (selective for the AAD-12 (v1) gene); 280, 560, 1120 g ae/ha R-dichloroprop (selective for the AAD-1 (v3) gene); or 560, 1120, 2240 g ae/ha 2,4-D DMA (to confirm 2,4-D tolerance). Homozygous T2 plants of each gene were also planted for use as controls. Plants were graded at 3 and 14 DAT.

The subject of assay [6] is AAD-12 x AAD-1 F1 cross tobacco. Nature of the assay: Auxinic herbicide cross tolerance of stacked tobacco, F1 cross. The conditions noted are these: AAD-12 (v1) x AAD (v3) F1. Format: in vivo, Nicotiana tabacum. The procedure:
as §1

The test system of a further assay is wildtype tobacco. In words: Auxinic herbicide cross tolerance of stacked tobacco, wildtype. In kind it is in vivo, Nicotiana tabacum. The settings on record: KY160 wildtype control. The procedure: as §1
[7] abbreviates: 2× rate of triclopyr (840 g ae/ha).

Turning to `Nc1c(Cl)c(F)nc(OCC(=O)O)c1Cl` [Fluroxypyr], the “% Visual Injury 14DAT” value is reported as 1% in assay [1] (AAD-12 4101(0)003.R.003.AF, 280 g ae/ha); 5% in assay [1] (AAD-12 4101(0)005.001.AF, 280 g ae/ha); 11% in assay [2] (280 g ae/ha). Moreover, the “Brace Root Injury Rating (0-10 scale) 28DAT” value in assay [1] (AAD-12 event 4101(0)003.R.003.AF, 280 g ae/ha) is listed as 0; in assay [1] (AAD-12 event 4101(0)005.001.AF, 280 g ae/ha), 0; in assay [2] (Wild-type NK603, 280 g ae/ha), 2. The brace root injury entry in assay [1] (Fluroxypyr at 280 g ae/ha) is “no brace root injury”; in assay [2] (Fluroxypyr at 280 g ae/ha) it was “moderate brace root swelling and wandering”. In addition, the “visual injury, average” value in assay [1] (Fluroxypyr at 280 g ae/ha, 5DAT) worked out at 8%. Besides, in assay [2] (Fluroxypyr at 280 g ae/ha), the visual injury stood at 11%. Moreover, the results for the injury entry in assay [3] (35-560 g ae/ha fluroxypyr) and in assay [4] (Fluroxypyr at 280 g ae/ha) were “greatest injury” and 99%, respectively. Also, the “Average % Injury of Replicates 14 DAT” value in assay [3] (T1 1580(1)-004, 35 g ae/ha) was 0%; in assay [3] (T1 1580(1)-004, 140 g ae/ha) it was 0%; in assay [3] (T1 1580(1)-004, 560 g ae/ha), 3%; in assay [3] (T1 1580(1)-018, 35 g ae/ha), 8%; in assay [3] (T1 1580(1)-018, 140 g ae/ha), 10%; in assay [3] (T1 1580(1)-018, 560 g ae/ha) it was 18%. Moreover, in assay [4] (280 GM AE/HA), the “Average % Injury across locations at 14 DAT” value was found to be 99%. Also, the “Average % injury 14 DAT” value is on record as 0% in assay [5] (70 g ae/ha); 0% in assay [5] (140 g ae/ha); 0% in assay [6] (70 g ae/ha); 0% in assay [6] (140 g ae/ha); 40% in the assay with wildtype tobacco (70 g ae/ha); 65% in the assay on wildtype tobacco (140 g ae/ha).
Regarding `C[C@@H](Oc1ccc(Cl)cc1Cl)C(=O)O` [(R)-dichlorprop, R-2,4-dichlorophenoxypropionic acid], the “Average % injury 14 DAT” value in assay [5] (280 g ae/ha) worked out at 15%; in assay [5] (560 g ae/ha), 50%; in assay [5] (1120 g ae/ha) it was 70%; in assay [6] (280 g ae/ha) it was 0%; in assay [6] (560 g ae/ha) it was 0%; in assay [6] (1120 g ae/ha), 0%. Moreover, the “Average % injury 14 DAT” value turned out to be 25% with wildtype tobacco (280 g ae/ha), 60% in the assay with wildtype tobacco (560 g ae/ha) and 80% with wildtype tobacco (1120 g ae/ha).
Take `O=C(O)COc1nc(Cl)c(Cl)cc1Cl` [triclopyr]: the “visual injury, average across the two events” value in assay [1] (2× rate of triclopyr (840 g ae/ha), 14 DAT) is reported as 3%. The “% Visual Injury 14DAT” value is on record as 3% in assay [1] (AAD-12 4101(0)003.R.003.AF, 840 g ae/ha); 4% in assay [1] (AAD-12 4101(0)005.001.AF, 840 g ae/ha); 31% in assay [2] (840 g ae/ha). The “Brace Root Injury Rating (0-10 scale) 28DAT” value worked out at 0 in assay [1] (AAD-12 event 4101(0)003.R.003.AF, 840 g ae/ha); 0 in assay [1] (AAD-12 event 4101(0)005.001.AF, 840 g ae/ha); 7 in assay [2] (Wild-type NK603, 840 g ae/ha). For the same compound, in assay [1] (Triclopyr at 840 g ae/ha), the brace root injury entry is “no brace root injury”. The visual injury in assay [2] (setting [7]) worked out at 31%. Further, the “average brace root injury score (0-10 scale)” value in assay [2] (Triclopyr at 840 g ae/ha, 28DAT) is 7. Further, the injury entry in assay [3] (70-1120 g ae/ha triclopyr, in one event line) is recorded as “Some injury”; in assay [4] (setting [7]) it was 53%. Further, the “Average % Injury of Replicates 14 DAT” value in assay [3] (T1 1580(1)-004, 70 g ae/ha) turned out to be 0%; in assay [3] (T1 1580(1)-004, 280 g ae/ha), 0%; in assay [3] (T1 1580(1)-004, 1120 g ae/ha), 0%; in assay [3] (T1 1580(1)-018, 70 g ae/ha), 5%; in assay [3] (T1 1580(1)-018, 280 g ae/ha), 5%; in assay [3] (T1 1580(1)-018, 1120 g ae/ha) it was 8%. The “Average % Injury across locations at 14 DAT” value in assay [4] (840 GM AE/HA) is given as 53%.

These data come from patent US11371055B2, “Herbicide resistance genes” (CORTEVA AGRISCIENCE LLC, priority 2005, dated 2022).
